Paper PMC4492758 (Pharmacology Research & Perspectives, 2015)
Values joined by “and” are separate entries in the source; they are usually repeats but may differ in a detail not shown here. Equal entries are not always repeated. “Also recorded” adds a separate entry of the source. Structures can show the parent of a compound that is named as a salt. Where two headings read alike, the source gives them in different places. Marks after values point to notes of the source that are not given here.

What was measured:
[1] = target: rat serotonin transporter (Rattus norvegicus, UniProt P31652); assay: Rat SERT binding, [3H]citalopram, rat cerebral cortex membranes
Human adrenergic α1A = Human adrenergic α1A (Homo sapiens, UniProt P35348); assay: Off-target radioligand binding assay
Human adrenergic α1B = Human adrenergic α1B (Homo sapiens, UniProt P35368); assay: Off-target radioligand binding assay; settings: read-out: Percentage inhibition at 1 μmol/L
Human adrenergic α2A = Human adrenergic α2A (Homo sapiens, UniProt P08913); assay: Off-target radioligand binding assay; settings: read-out: Percentage inhibition at 1 μmol/L
Human adrenergic α2B = Human adrenergic α2B (Homo sapiens, UniProt P18089); assay: Off-target radioligand binding assay; settings: read-out: Percentage inhibition at 1 μmol/L
Human adrenergic α2C = Human adrenergic α2C (Homo sapiens, UniProt P18825); assay: Off-target radioligand binding assay; settings: read-out: Percentage inhibition at 1 μmol/L
Human adrenergic β1 = Human adrenergic β1 (Homo sapiens, UniProt P08588); assay: Off-target radioligand binding assay; settings: read-out: Percentage inhibition at 1 μmol/L
Human adrenergic β2 = Human adrenergic β2 (Homo sapiens, UniProt P07550); assay: Off-target radioligand binding assay; settings: read-out: Percentage inhibition at 1 μmol/L
Human adrenergic β3 = Human adrenergic β3 (Homo sapiens, UniProt P13945); assay: Off-target radioligand binding assay; settings: read-out: Percentage inhibition at 1 μmol/L
Human dopamine D1 = Human dopamine D1 (Homo sapiens, UniProt P21728); assay: Off-target radioligand binding assay; settings: read-out: Percentage inhibition at 1 μmol/L
Human dopamine D2L = Human dopamine D2L (Homo sapiens, UniProt P14416); assay: Off-target radioligand binding assay; settings: read-out: Percentage inhibition at 1 μmol/L
Human dopamine D3 = Human dopamine D3 (Homo sapiens, UniProt P35462); assay: Off-target radioligand binding assay
Rat GABAA = assay: Off-target radioligand binding assay; settings: [3H] Flunitrazepam 0.88 nmol/L
Human histamine H1 = Human histamine H1 (Homo sapiens, UniProt P35367); assay: Off-target radioligand binding assay
Human histamine H2 = Human histamine H2 (Homo sapiens, UniProt P25021); assay: Off-target radioligand binding assay; settings: read-out: Percentage inhibition at 1 μmol/L
Human musucarinic M1 = Human musucarinic M1 (Homo sapiens, UniProt P11229); assay: Off-target radioligand binding assay; settings: read-out: Percentage inhibition at 1 μmol/L
Human musucarinic M2 = Human musucarinic M2 (Homo sapiens, UniProt P08172); assay: Off-target radioligand binding assay; settings: read-out: Percentage inhibition at 1 μmol/L
Human opiate δ = Human opiate δ (Homo sapiens, UniProt P41143); assay: Off-target radioligand binding assay; settings: read-out: Percentage inhibition at 1 μmol/L
Human opiate κ = Human opiate κ (Homo sapiens, UniProt P41145); assay: Off-target radioligand binding assay; settings: read-out: Percentage inhibition at 1 μmol/L
Human opiate μ = Human opiate μ (Homo sapiens, UniProt P35372); assay: Off-target radioligand binding assay; settings: read-out: Percentage inhibition at 1 μmol/L
[2] = target: guinea pig serotonin 5-HT4 (Cavia porcellus, UniProt O70528); assay: Off-target radioligand binding assay; settings: read-out: Percentage inhibition at 1 μmol/L
Human serotonin 5-HT1B = Human serotonin 5-HT1B (Homo sapiens, UniProt P28222); assay: Off-target radioligand binding assay; settings: read-out: Percentage inhibition at 1 μmol/L
Human serotonin 5-HT2A = Human serotonin 5-HT2A (Homo sapiens, UniProt P28223); assay: Off-target radioligand binding assay; settings: read-out: Percentage inhibition at 1 μmol/L
Human serotonin 5-HT2B = Human serotonin 5-HT2B (Homo sapiens, UniProt P41595); assay: Off-target radioligand binding assay
Human serotonin 5-HT2C = Human serotonin 5-HT2C (Homo sapiens, UniProt P28335); assay: Off-target radioligand binding assay; settings: read-out: Percentage inhibition at 1 μmol/L
Human serotonin 5-HT3 = Human serotonin 5-HT3 (Homo sapiens, UniProt P46098); assay: Off-target radioligand binding assay; settings: read-out: Percentage inhibition at 1 μmol/L
Human serotonin 5-HT5A = Human serotonin 5-HT5A (Homo sapiens, UniProt P47898); assay: Off-target radioligand binding assay; settings: read-out: Percentage inhibition at 1 μmol/L
Human serotonin 5-HT6 = Human serotonin 5-HT6 (Homo sapiens, UniProt P50406); assay: Off-target radioligand binding assay; settings: read-out: Percentage inhibition at 1 μmol/L
Human serotonin 5-HT7 = Human serotonin 5-HT7 (Homo sapiens, UniProt P34969); assay: Off-target radioligand binding assay
[3] = target: pig catechol-O-methyltransferase (Sus scrofa, UniProt Q99028); format: biochemical; settings: read-out: percent inhibition
[4] = target: human monoamine oxidase-A (Homo sapiens, UniProt P21397); assay: Off-target enzyme assay, 14C-labeled substrate; format: biochemical; settings: read-out: percent inhibition
[5] = target: human monoamine oxidase -B (Homo sapiens, UniProt P27338); assay: Off-target enzyme assay, 14C-labeled substrate; format: biochemical; settings: read-out: percent inhibition
[6] = Pharmacokinetics of DSP-1053 in male rats; format: in vivo; settings: Crl:CD(SD), rat, plasma
[7] = system: extracellular 5-HT levels in the rat frontal cortex; assay: Rat microdialysis, extracellular 5-HT; format: in vivo; settings: for maximum increase of 5-HT extracellular levels, % of baseline value: 100 min after administration, mean ± SEM
[8] = system: dopamine extracellular levels in the rat frontal cortex; assay: Rat microdialysis, extracellular dopamine; format: in vivo; settings: any dose (1, 3, 10 mg kg^−1 p.o.)
rats [9] = assay: Rat forced swimming test; format: in vivo; settings: vs vehicle
[10] = system: sham-operated and olfactory bulbectomized rats; assay: Olfactory bulbectomy model, emotional scoring; format: in vivo, rat
[11] = system: sham-operated and olfactory bulbectomized rats; assay: Olfactory bulbectomy model, open-field test; format: in vivo, rat
Suncus murinus [12] = assay: Evaluation of emesis in Suncus murinus, experiment 1; format: in vivo; settings: for Number of animals vomited/tested: single dose, 60 min observation; for Total emetic episode: 1 h observation, animals that vomited
Suncus murinus [13] = settings: 60 mg kg^−1 po, 19 animals per group
rats [14] = assay: Conditioned taste aversion test in rats; settings: 100 mg kg^−1; Day 4, 24 h after administration, vs vehicle
Suncus murinus [15] = settings: ref Mine et al. [2013], cited from earlier work; for Number of animals vomited/tested: single dose
human 5-HT1A receptor = human 5-HT1A receptor (Homo sapiens, UniProt P08908); assay: biochemical; settings: read-out: I.A. (intrinsic activity), GTPγS binding
[16] = read-out: Percentage inhibition at 1 μmol/L
[17] = olfactory bulbectomized animals, 0.3, 1 and 3 mg/kg, 1- and 2-week administration
[18] = sham-operated animals, 0.3, 1 and 3 mg/kg, 1- and 2-week administration
[19] = 1-week administration, vs vehicle
[20] = sham-operated animals, 2-week administration

Human serotonin 5-HT2B, sequence (P41595 whole entry): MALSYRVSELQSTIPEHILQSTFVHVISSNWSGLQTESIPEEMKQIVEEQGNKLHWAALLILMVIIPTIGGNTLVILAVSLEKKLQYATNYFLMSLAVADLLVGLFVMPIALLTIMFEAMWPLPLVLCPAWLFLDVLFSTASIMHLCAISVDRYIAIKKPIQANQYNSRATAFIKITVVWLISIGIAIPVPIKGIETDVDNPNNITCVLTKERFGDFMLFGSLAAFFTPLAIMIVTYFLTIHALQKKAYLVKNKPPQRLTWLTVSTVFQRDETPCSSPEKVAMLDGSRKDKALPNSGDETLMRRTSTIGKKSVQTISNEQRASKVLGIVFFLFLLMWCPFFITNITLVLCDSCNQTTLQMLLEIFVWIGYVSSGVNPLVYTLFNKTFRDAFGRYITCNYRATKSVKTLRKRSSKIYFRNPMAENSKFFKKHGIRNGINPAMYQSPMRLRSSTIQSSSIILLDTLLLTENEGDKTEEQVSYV
Human histamine H1, sequence (P35367 whole entry): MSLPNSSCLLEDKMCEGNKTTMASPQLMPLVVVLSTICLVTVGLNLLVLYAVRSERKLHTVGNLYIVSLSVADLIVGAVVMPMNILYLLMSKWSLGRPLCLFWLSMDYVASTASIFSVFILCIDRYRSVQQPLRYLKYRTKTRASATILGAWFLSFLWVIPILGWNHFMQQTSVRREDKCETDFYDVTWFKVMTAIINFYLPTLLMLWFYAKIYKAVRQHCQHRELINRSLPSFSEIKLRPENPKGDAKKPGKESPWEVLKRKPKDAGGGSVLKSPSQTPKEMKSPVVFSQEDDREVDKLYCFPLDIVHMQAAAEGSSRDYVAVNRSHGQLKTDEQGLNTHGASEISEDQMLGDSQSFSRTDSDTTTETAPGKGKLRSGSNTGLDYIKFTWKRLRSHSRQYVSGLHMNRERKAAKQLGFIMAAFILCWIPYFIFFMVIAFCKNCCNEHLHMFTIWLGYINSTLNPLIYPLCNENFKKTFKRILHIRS
Human serotonin 5-HT7, sequence (P34969 whole entry): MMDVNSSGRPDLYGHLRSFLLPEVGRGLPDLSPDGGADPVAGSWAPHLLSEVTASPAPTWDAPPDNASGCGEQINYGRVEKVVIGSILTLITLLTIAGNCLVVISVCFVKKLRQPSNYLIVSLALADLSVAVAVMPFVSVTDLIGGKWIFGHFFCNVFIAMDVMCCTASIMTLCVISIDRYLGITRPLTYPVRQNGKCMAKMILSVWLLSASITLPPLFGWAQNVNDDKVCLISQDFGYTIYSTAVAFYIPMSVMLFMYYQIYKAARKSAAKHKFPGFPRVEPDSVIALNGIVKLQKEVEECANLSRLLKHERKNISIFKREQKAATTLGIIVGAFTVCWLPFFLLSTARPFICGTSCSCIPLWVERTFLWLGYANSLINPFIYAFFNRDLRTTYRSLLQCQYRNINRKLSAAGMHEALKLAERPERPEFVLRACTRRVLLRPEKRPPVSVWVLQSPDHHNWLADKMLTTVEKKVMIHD
Human adrenergic α1A, sequence (P35348 whole entry): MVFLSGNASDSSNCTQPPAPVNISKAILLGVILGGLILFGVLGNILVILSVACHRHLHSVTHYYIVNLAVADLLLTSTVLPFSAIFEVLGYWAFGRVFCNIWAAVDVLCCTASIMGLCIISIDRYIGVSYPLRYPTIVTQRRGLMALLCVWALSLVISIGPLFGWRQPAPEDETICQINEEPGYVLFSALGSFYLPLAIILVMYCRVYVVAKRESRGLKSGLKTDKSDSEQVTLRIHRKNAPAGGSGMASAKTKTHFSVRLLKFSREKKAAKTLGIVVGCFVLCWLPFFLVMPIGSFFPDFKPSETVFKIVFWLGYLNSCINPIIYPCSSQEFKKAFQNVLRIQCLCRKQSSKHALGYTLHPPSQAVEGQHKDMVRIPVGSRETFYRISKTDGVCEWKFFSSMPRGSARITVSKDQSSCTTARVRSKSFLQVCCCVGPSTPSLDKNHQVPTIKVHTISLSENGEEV
Human dopamine D3, sequence (P35462 whole entry): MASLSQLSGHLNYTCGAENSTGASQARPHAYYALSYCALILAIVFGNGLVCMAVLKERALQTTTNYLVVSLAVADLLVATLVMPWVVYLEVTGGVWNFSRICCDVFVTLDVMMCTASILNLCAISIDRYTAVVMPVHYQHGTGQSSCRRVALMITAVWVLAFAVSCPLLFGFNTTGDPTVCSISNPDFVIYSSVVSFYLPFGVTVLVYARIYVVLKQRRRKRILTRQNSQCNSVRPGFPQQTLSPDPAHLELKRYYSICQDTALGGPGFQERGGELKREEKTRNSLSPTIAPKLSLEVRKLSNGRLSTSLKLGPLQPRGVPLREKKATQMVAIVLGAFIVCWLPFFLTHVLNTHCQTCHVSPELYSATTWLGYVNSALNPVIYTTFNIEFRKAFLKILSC
human 5-HT1A receptor, sequence (P08908 whole entry): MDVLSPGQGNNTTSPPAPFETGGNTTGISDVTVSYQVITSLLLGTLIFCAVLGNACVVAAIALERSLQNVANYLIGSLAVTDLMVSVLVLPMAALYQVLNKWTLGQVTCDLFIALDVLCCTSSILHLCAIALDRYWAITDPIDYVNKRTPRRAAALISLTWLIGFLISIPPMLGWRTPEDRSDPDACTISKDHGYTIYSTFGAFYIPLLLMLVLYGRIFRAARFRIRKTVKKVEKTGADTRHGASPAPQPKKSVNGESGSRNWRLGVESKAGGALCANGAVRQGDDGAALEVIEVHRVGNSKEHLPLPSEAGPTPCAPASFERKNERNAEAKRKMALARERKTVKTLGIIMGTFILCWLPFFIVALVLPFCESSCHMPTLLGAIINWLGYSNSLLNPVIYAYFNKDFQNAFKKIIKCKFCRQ
rat serotonin transporter, sequence (P31652 whole entry): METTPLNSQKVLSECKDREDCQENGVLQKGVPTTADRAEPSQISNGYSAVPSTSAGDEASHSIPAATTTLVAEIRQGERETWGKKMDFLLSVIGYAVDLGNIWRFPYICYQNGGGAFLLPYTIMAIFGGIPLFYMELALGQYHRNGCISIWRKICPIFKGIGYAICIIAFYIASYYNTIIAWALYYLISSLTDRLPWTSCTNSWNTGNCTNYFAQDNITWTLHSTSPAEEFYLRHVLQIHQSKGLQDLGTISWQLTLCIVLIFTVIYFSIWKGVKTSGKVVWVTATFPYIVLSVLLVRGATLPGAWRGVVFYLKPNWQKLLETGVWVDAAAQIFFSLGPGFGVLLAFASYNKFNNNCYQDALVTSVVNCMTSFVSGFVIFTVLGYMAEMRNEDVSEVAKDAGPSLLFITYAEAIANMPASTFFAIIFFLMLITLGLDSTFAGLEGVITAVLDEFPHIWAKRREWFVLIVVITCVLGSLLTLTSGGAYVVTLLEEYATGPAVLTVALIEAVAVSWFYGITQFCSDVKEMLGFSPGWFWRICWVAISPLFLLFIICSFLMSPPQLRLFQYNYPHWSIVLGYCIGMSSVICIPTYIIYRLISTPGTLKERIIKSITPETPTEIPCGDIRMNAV
Human serotonin 5-HT3, sequence (P46098 24-478): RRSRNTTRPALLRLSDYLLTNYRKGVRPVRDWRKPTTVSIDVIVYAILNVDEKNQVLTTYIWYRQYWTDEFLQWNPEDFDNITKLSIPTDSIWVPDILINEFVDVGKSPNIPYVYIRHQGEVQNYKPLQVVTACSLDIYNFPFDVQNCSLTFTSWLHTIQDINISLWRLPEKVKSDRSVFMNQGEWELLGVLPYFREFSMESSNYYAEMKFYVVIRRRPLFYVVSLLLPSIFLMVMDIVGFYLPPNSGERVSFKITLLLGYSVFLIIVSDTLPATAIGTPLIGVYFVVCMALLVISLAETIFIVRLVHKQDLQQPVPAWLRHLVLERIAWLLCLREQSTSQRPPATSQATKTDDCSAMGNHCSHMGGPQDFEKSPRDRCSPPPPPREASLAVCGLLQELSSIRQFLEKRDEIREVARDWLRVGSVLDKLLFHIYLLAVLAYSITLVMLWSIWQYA
Human histamine H2, sequence (P25021 whole entry): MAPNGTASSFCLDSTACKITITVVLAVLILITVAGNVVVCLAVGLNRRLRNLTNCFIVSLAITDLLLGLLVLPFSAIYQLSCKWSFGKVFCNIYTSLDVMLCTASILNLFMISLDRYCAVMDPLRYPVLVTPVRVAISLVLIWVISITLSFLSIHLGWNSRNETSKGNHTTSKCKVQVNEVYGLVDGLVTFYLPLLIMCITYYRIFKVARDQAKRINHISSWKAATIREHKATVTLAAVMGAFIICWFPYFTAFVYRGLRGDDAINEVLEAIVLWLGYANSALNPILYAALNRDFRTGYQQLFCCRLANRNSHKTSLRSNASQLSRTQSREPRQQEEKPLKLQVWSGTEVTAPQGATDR
Human opiate κ, sequence (P41145 whole entry): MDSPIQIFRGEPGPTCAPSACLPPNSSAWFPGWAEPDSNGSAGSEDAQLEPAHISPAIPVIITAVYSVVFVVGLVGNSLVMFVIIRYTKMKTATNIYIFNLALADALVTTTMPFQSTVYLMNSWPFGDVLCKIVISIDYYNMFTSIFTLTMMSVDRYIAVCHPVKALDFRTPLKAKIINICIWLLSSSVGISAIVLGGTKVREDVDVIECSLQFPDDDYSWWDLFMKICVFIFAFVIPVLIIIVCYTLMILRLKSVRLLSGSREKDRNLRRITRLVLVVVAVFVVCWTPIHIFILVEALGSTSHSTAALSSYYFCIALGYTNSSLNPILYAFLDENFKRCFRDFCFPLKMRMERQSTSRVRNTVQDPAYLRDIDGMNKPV
Human opiate μ, sequence (P35372 whole entry): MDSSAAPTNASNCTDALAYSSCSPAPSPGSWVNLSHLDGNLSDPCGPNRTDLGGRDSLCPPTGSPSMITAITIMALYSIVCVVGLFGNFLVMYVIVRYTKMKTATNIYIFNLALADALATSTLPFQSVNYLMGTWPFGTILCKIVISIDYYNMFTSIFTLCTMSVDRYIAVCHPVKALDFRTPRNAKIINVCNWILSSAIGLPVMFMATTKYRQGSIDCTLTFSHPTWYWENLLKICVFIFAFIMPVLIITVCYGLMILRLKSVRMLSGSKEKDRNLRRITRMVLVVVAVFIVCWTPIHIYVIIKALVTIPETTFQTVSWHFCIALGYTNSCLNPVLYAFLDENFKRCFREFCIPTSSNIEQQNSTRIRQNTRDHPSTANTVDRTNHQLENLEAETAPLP

Compound: COCCOc1cc(CC2CCN(CCc3ccc4c(c3)C(=O)CCO4)CC2)ccc1Br.O=S(=O)(O)c1ccccc1 [DSP-1053, 6-(2-{4-[4-Bromo-3-(2-methoxyethoxy)benzyl]piperidin-1-yl}ethyl)-2,3-dihydro-4H-chromen-4-one benzenesulfonate]
- Ki [1]: 0.000489 ± 3.9e-05 µM
- Ki (Human adrenergic α1A): 0.528 ± 0.045 µM
- inhibition at 1 µM (Human adrenergic α1A; [16]): 57%
- inhibition at 1 µM (Human adrenergic α1B): 1%
- inhibition at 1 µM (Human adrenergic α2A): 26%
- inhibition at 1 µM (Human adrenergic α2B): 6%
- inhibition at 1 µM (Human adrenergic α2C): 41%
- inhibition at 1 µM (Human adrenergic β1): 14%
- inhibition at 1 µM (Human adrenergic β2): 22%
- inhibition at 1 µM (Human adrenergic β3): 19%
- inhibition at 1 µM (Human dopamine D1): 4%
- inhibition at 1 µM (Human dopamine D2L): 35%
- Ki (Human dopamine D3): 0.249 ± 0.021 µM
- inhibition at 1 µM (Human dopamine D3; [16]): 65%
- Percentage inhibition at 1 μmol/L (Rat GABAA): 8%
- Ki (Human histamine H1): 0.00746 ± 0.0002 µM
- inhibition at 1 µM (Human histamine H1; [16]): 93%
- inhibition at 1 µM (Human histamine H2): 37%
- inhibition at 1 µM (Human musucarinic M1): 9%
- inhibition at 1 µM (Human musucarinic M2): 21%
- inhibition at 1 µM (Human opiate δ): 10%
- inhibition at 1 µM (Human opiate κ): 0%
- inhibition at 1 µM (Human opiate μ): 2%
- inhibition at 1 µM [2]: 26%
- inhibition at 1 µM (Human serotonin 5-HT1B): 47%
- inhibition at 1 µM (Human serotonin 5-HT2A): 35%
- Ki (Human serotonin 5-HT2B): 0.117 ± 0.028 µM
- inhibition at 1 µM (Human serotonin 5-HT2B; [16]): 79%
- inhibition at 1 µM (Human serotonin 5-HT2C): 20%
- inhibition at 1 µM (Human serotonin 5-HT3): 0%
- inhibition at 1 µM (Human serotonin 5-HT5A): 2%
- inhibition at 1 µM (Human serotonin 5-HT6): 14%
- Ki (Human serotonin 5-HT7): 0.288 ± 0.035 µM
- inhibition at 1 µM (Human serotonin 5-HT7; [16]): 73%
- inhibition at 1 µM [3]: 0%
- inhibition at 1 µM [4]: 5.28%
- inhibition at 1 µM [5]: 0.19%
- clearance ([6]; iv, 1 mg/kg): 57.6 mL/min/kg
- Tmax ([6]; po, 10 mg/kg): ≤ 1 h
- maximum increase of 5-HT extracellular levels, % of baseline value ([7]; 3 mg kg^−1 p.o.): 180 ± 25.9%
- maximum increase of 5-HT extracellular levels, % of baseline value ([7]; 10 mg kg^−1 p.o.): 264 ± 58.0%
- extracellular 5-HT levels ([7]; given once at 3 and 10 mg kg^−1): dose-dependently increased
- dopamine extracellular levels in the rat frontal cortex [8]: did not affect
- immobility time (rats [9]; 2-week consecutive administration, 1 mg kg^−1 p.o.): significantly decreased
- immobility time (rats [9]; 2-week consecutive administration, 1 mg kg^−1 p.o., listed as DSR-1053): significantly reduced
- emotional scores [10, 17]: reduced; also recorded: significant decrease
- emotional scores [10, 18]: no effect
- number of line crosses [11, 17]: reduced; also recorded: significant decrease
- number of line crosses [11, 18]: no effect
- Number of animals vomited/tested (Suncus murinus [12]; 10 mg kg^−1 po): 0 and 0/6
- Number of animals vomited/tested (Suncus murinus [12]; 30 mg kg^−1 po): 1 and 1/6
- Total emetic episode (Suncus murinus [12]; 30 mg kg^−1 po): 2
- Number of animals vomited/tested (Suncus murinus [12]; 60 mg kg^−1 po): 3 and 3/6
- Total emetic episode (Suncus murinus [12]; 60 mg kg^−1 po, mean ± SEM): 5.3 ± 1.0
- number of animals that showed emesis on the first day, of 19 animals (Suncus murinus [13]): 9
- saccharin consumption (rats [14]): significantly inhibited

Compound: Fc1ccc([C@@H]2CCNC[C@H]2COc2ccc3c(c2)OCO3)cc1 [Paroxetine, paroxetine hydrochloride, reference compound]
- immobility time (rats [9]; 2-week administration): no effect
- immobility time (rats [9]; 3-week administration, 3 and 10 mg kg^−1 p.o.): reduced immobility time
- emotional scores [10, 19]: did not alter
- emotional scores ([10]; olfactory bulbectomized animals, 3 and 10 mg/kg, 2-week administration): significant decrease
- emotional scores [10, 20]: no effect
- number of line crosses [11, 19]: did not alter
- number of line crosses ([11]; olfactory bulbectomized animals, 10 mg/kg, 2-week administration): significant decrease
- number of line crosses [11, 20]: no effect
- number of animals that showed emesis on the first day, of 19 animals (Suncus murinus [13]): 12
- Number of animals vomited/tested (Suncus murinus [15]; 10 mg kg^−1 po): 0/6
- Number of animals vomited/tested (Suncus murinus [15]; 10 mg kg^−1 po, listed as paroxetine): 0
- Number of animals vomited/tested (Suncus murinus [15]; 30 mg kg^−1 po): 2/6
- Number of animals vomited/tested (Suncus murinus [15]; 30 mg kg^−1 po, listed as paroxetine): 2
- Total emetic episode (Suncus murinus [15]; 30 mg kg^−1 po, 1 h observation, animals that vomited): 6.8
- Number of animals vomited/tested (Suncus murinus [15]; 60 mg kg^−1 po): 6/6 ^*
- Number of animals vomited/tested (Suncus murinus [15]; 60 mg kg^−1 po, listed as paroxetine): 6

Compound: CC(C)NCC(O)COc1cccc2[nH]ccc12 (stereo not shown) [Pindolol, pindolol]
- Emax (human 5-HT1A receptor): 13.3 ± 3.8%
